The test system of one assay is Xenopus APC. The assay is described as follows: ^3H-TAME binding assay in interphase extract. The conditions noted are these: 200 nM ^3H-TAME. An excerpt: The beads were washed quickly twice with XB high salt and twice with XB.
The next assay deals with APC (Xenopus laevis, UniProt A0A1L8ESF3). Nature of the assay: Cyclin B1-luciferase reporter degradation (luciferase assay) in mitotic Xenopus egg extract. It is filed as biochemical. Particulars: mitotic Xenopus extract. On the technique in general: A reporter such as luciferase makes a cellular process visible.
Sequence of APC (A0A1L8ESF3 entry or part of it): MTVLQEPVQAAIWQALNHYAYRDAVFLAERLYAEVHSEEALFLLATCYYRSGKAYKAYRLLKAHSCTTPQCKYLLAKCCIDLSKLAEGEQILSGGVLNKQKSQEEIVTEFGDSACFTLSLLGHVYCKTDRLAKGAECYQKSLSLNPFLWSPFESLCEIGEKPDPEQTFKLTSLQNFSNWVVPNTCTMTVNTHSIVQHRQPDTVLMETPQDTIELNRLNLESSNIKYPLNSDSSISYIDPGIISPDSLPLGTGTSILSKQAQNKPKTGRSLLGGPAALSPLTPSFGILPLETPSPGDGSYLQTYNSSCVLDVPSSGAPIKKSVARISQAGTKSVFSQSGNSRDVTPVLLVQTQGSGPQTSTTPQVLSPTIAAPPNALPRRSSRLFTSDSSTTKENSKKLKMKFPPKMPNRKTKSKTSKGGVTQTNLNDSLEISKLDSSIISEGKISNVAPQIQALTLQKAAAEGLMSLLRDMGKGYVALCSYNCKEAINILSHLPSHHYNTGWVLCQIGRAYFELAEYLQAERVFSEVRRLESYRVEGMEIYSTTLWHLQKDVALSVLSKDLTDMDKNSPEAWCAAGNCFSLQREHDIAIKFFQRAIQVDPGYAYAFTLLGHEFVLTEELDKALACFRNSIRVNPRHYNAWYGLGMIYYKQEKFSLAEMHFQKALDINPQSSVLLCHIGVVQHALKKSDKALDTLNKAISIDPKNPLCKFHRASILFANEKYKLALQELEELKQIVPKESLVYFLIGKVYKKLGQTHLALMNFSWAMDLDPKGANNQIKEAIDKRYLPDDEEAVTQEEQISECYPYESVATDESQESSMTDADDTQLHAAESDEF
Sequence of APC (Q6DFD4 entry or part of it, further chain): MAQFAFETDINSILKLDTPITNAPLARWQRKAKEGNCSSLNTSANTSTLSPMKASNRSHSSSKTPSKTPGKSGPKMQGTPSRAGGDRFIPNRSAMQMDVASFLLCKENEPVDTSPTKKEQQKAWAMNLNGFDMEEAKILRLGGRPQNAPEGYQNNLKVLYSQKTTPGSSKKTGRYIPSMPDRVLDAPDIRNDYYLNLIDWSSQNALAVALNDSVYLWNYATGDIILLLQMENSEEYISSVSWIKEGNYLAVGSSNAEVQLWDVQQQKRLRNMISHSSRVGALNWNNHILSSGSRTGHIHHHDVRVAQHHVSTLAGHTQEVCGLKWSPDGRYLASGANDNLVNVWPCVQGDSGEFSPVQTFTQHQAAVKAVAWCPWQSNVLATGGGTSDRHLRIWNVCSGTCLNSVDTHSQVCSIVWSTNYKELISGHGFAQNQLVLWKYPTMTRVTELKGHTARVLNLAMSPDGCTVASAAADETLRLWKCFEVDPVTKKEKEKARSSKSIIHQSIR
The next assay has as its system APC/C. Nature of the assay: ^35S-labeled substrate degradation in mitotic Xenopus egg extract. It is filed as biochemical. Particulars: 200 μM.
Another assay has as its system RPE1-H2B-GFP cells. Nature of the assay: Fluorescence live cell imaging with survival (Cox) analysis, RPE1. It is filed as cell-based, human. The conditions noted are these: proTAME 6 μM; for % rate of mitotic exit: relative to DMSO control, Cox model, apcin/apcin-M 25 μM; for Median mitotic duration: apcin or apcin-M 25 μM. The procedure: RPE1-H2B-GFP or U2OS-H2B-GFP cells were plated in 24-well glass-bottom plates 18-24 hours prior to siRNA transfection using RNAiMax (Invitrogen). After treatment with compound(s), DIC and GFP images were captured at 6-minute intervals for 45 hours. Movies were manually analyzed using Nikon Elements software or Image J.
RPE1-H2B-GFP or U2OS-H2B-GFP cells were plated in 24-well glass-bottom plates (Greiner BioOne, 662892) 18-24 hours prior to siRNA transfection using RNAiMax (Invitrogen). Plates were inserted into a covered chamber supplied with humidified 5% CO2 and mounted onto a motorized microscope stage (Prior Scientific). DIC and FITC images were captured at 6 minute intervals for 45 hours using a Nikon Ti inverted fluorescence microscope fitted with a 37° C. enclosed incubation chamber and using a 20× Plan Apo 0.75 NA objective lens. A Hamamatsu ORCA cooled CCD camera collected the images with 2×2 binning using Nikon Elements software (version 3.0). Movies were manually analyzed using Nikon Elements software or ImageJ. Mitotic duration was defined as the time from nuclear envelope breakdown until anaphase, in the case of normal mitosis, or until exit from prolonged mitosis as indicated by cytoplasmic blebbing accompanied by changes in chromatin as detected by H2B-GFP.
In order to detect differences in mitotic duration among cells in the live-cell imaging screen, a stratified Cox proportional hazards model (Cox, D. R. Regression models and life tables. J Royal Statistics Soc B34, 187-220, (1972)) was fit to censored mitotic duration times (where cells that are not observed exiting mitosis or dying in mitosis are censored at the last known time in mitosis). The Cox proportional hazards model is a semiparameteric approach to modeling time-to-event data, in which covariates are assumed to have constant proportional effects over time relative to a baseline hazard function that can take any form. In this case, stratification on “person” (the individual who analyzed the movie) and “date” (the date the assay was run) allow the baseline hazard function to differ across experimental blocks, but assume a fixed effect of treatment across experimental blocks. The model is thus: hi(t|Z=j)=hj(t)exp(β1×apcini+β2×apcinMi+β3×proTAMEi+β4×proTAMEi:apcinMi+β5×proTAMEi:apcini), j=1 . . . 4 where hi(t) is the hazard function of cell i at time t, hj(t) is the baseline hazard for strata j (with 4 levels, one for each person and date combination), apcini, proTAMEi, and apcinMi are indicator variables for presence or absence of the compounds apcin, proTAME, and apcin-M, respectively in cell i, proTAMEi:apcini is an indicator variable that is 1 if both proTAME and apcin are present in cell i, and 0 otherwise, and proTAMEi:apcinMi is a similar indicator variable for proTAME+apcin-M. In this model, […] represent the effects of apcin, apcin-M, and proTAME alone, while β4 and β5 represent the additional non-additive effect of the compounds beyond what is predicted from the combination of effects of the two compounds alone. This model was fit separately to cells treated with control siRNA or Mad2 siRNA. All statistical analysis was carried out in R 3.0.0 using the functions available as part of the survival package.
In this model, the β coefficients represent the log hazard ratios for exiting mitosis between treated and untreated cells. However, for ease of interpretation the β coefficients are exponentiated to convert them to normal hazard ratios, and then multiplied by 100 to convert to percentages relative to DMSO. These hazard ratios, which are referred to as mitotic exit rate, represent the relative probability that a treated cell in mitosis at time t will exit mitosis in the next time interval compared to an untreated cell.
For ease of interpretation, the treatment effects are presented relative to DMSO for all individual compounds and compound combinations. […]

The next assay has as its system U2OS-H2B-GFP cells. Nature of the assay: Fluorescence live cell imaging with survival (Cox) analysis, U2OS. It is filed as cell-based, human. The conditions noted are these: proTAME 12 μM. The procedure:
Mitotic duration and cell fate were determined by manual inspection of the movies and plotted as Kaplan-Meier curves. The hatch marks on the Kaplan-Meier curved indicate mitotic duration endpoints of censored cells. Includes the combined results of five independent experiments. […] Pairwise comparison between proTAME and proTAME+apcin-M tested using a Cox proportional hazards model stratified by date, using data from only the experimental blocks in which both proTAME and proTAME+apcin were tested.
Movies were manually analyzed using Nikon Elements software or Image J.
Plates were inserted into a covered chamber supplied with humidified 5% CO2 and mounted onto a motorized microscope stage (Prior Scientific). […] A Hamamatsu ORCA cooled CCD camera collected the images with 2×2 binning using Nikon Elements software (version 3.0). Movies were manually analyzed using Nikon Elements software or ImageJ. Mitotic duration was defined as the time from nuclear envelope breakdown until anaphase, in the case of normal mitosis, or until exit from prolonged mitosis as indicated by cytoplasmic blebbing accompanied by changes in chromatin as detected by H2B-GFP.
The Cox proportional hazards model is a semiparameteric approach to modeling time-to-event data, in which covariates are assumed to have constant proportional effects over time relative to a baseline hazard function that can take any form. In this case, stratification on “person” (the individual who analyzed the movie) and “date” (the date the assay was run) allow the baseline hazard function to differ across experimental blocks, but assume a fixed effect of treatment across experimental blocks. The model is thus: hi(t|Z=j)=hj(t)exp(β1×apcini+β2×apcinMi+β3×proTAMEi+β4×proTAMEi:apcinMi+β5×proTAMEi:apcini), j=1 . . . […] This model was fit separately to cells treated with control siRNA or Mad2 siRNA. All statistical analysis was carried out in R 3.0.0 using the functions available as part of the survival package.

In a further assay the target is APC/C-Cdc20 (Xenopus laevis, UniProt Q6DFD4). The assay is described as follows: Kinetics of APC/C-Cdc20-dependent ubiquitination of cyclin B1 N-terminal fragment. It is filed as biochemical. The conditions noted are these: methylated ubiquitin. The procedure: Measurements of kinetics of ubiquitination were performed using an N-terminal fragment of cyclin B1 and APC/C isolated from Xenopus extract, exactly as previously described (Zeng, X. & King, R. W. Nat Chem Biol 8, 383-392, (2012)).
Kinetic analysis of APC^Cdc20 reactions. Endogenous APC^Cdc20 was isolated from Xenopus extract as described above. The ubiquitination mixture was prepared as described in Cdc20 ubiquitination assay with the exception that 60 μM methylated ubiquitin was used in place of WT ubiquitin. CycB-NT was diluted into the mixture to final concentrations of 1 μM, 500 nM, 250 nM, 125 nM and 62.5 nM prior to the reaction. For each reaction, 2.5 μl beads were mixed with 20 μl ubiquitination mixture and left on a shaker at RT for 30 seconds. The reaction was stopped by adding 7 μl hot 4×LDS sample buffer (Invitrogen NP0007)+[…]. Band intensity of the mono-, di-, and tri-ubiquitinated cycB-NT was quantitated with Image J and fitted to a hyperbolic equation by nonlinear regression.

Regarding `COC(=O)[C@H](CCCNC(=N)N)NC(C)=O` [AAME, Acetyl-L-Arginine Methyl Ester], in the assay on Xenopus APC, the “Competition with ^3H-TAME for binding to Xenopus APC” value was “did not”. Besides, the “Inhibition of cyclin B-luciferase proteolysis” value on APC is reported as “showed only low activity”.
Take `NCCCOC(=O)NC(Nc1ncccn1)C(Cl)(Cl)Cl` (stereo not shown) [apcin-A]: the “Activity on proteolysis of N-terminal ^35S-labeled fragment of cyclin B1 relative to apcin” value with APC/C is recorded as “reduced activity”.
Take `Cc1ncc([N+](=O)[O-])n1CCOC(=O)NC(Nc1ncccn1)C(Cl)(Cl)Cl` (stereo not shown) [apcin]: the “% rate of mitotic exit” value turned out to be 57.38% in the assay with RPE1-H2B-GFP cells (Mad2 siRNA); 82.87% in the assay with RPE1-H2B-GFP cells (control siRNA); 109.64% in the assay on U2OS-H2B-GFP cells (relative to DMSO control, Cox model, apcin/apcin-M 25 μM). Further, the “Median mitotic duration” value is reported as 24 in the assay with RPE1-H2B-GFP cells (Table 3, control siRNA); 19 in the assay on RPE1-H2B-GFP cells (Table 3, mad2 siRNA); 24 with U2OS-H2B-GFP cells (Table 7, apcin or apcin-M 25 μM). The “Effect on Km and kcat of APC-dependent ubiquitination” value on APC/C-Cdc20 was “caused a significant increase (p=0.0039) in the Km (Ki=23 μM) of the reaction but no reduction in kcat”.

The values above are taken from US9572788B2, “Cell permeable inhibitors of anaphase promoting complex” (President and Fellows of Harvard College, priority 2014, dated 2017).
